Some test systems named below: HOP-62 NSCLC; SK-MEL-5 melanoma; NCI-H460 lung; SW-620 colon; OVCAR-3 ovarian; EKVX NSCLC; SR leukemia; SK-OV-3 ovarian; SF-539 CNS; A498 renal; RXF 393 renal; HL-60(TB) leukemia; 786-0 renal; HOP-18 NSCLC; MDA-N; BT-549 breast; DU-145 prostate.
Holding throughout (assay): NCI tumour cell line growth inhibition, 48 h

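Cells were grown in 96-well plates and exposed to each compound for 48 hours at five concentrations; endpoints were interpolated linearly between bracketing concentrations, or set to the highest concentration if not reached. TGI: concentration producing complete growth inhibition.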 Where a SMILES comes first, the peptide text is derived from it. [ ]: non-standard residue; d: D form. The star is where a group is joined. ξ: configuration not given here. ξNMeF = CNC(Cc1ccccc1)C(=O)O; NMeV = CN[C@H](C(=O)O)C(C)C; Boc = CC(C)(C)OC(=O)*; OBn = c1ccc(CO*)cc1

As to `C=CCCCCCCCCCP(=O)(c1ccccc1)c1ccc2c(c1)OCCOCCOCCOCCO2` (configuration not stated), the TGI stood at 30.5 µM in the experiment on HOP-62 NSCLC; 24.2 µM in the experiment with SK-MEL-5 melanoma; 26.4 µM in the experiment with NCI-H460 lung; 29.9 µM with SW-620 colon; 19.7 µM in the experiment on OVCAR-3 ovarian; 34.2 µM with EKVX NSCLC. Also, the TGI is 22.8 µM with SR leukemia; 34.8 µM in the experiment with SK-OV-3 ovarian; 31.9 µM in the experiment with SF-539 CNS; 27.7 µM with A498 renal; 27.4 µM in the experiment on RXF 393 renal; 19.7 µM with HL-60(TB) leukemia. Moreover, the values for the TGI in the experiment on 786-0 renal and in the experiment with HOP-18 NSCLC were 29.8 µM and 31.8 µM, respectively.

Turning to `CCN(CC)CCNc1ccc2ncn3c4ccc(OC)cc4c(=O)c1c23`, the TGI is 20.3 µM with HOP-62 NSCLC; 20 µM in the experiment on SK-MEL-5 melanoma; 5.52 µM in the experiment with NCI-H460 lung; 11.1 µM in the experiment on SW-620 colon; 24.2 µM with OVCAR-3 ovarian; 29.2 µM in the experiment with EKVX NSCLC. Besides, the TGI in the experiment on MDA-N was 19.6 µM; in the experiment with SR leukemia, more than 22.7 µM; with SK-OV-3 ovarian, 23.8 µM; with SF-539 CNS, 20 µM; in the experiment on A498 renal, 21.5 µM; in the experiment with BT-549 breast it was 33 µM. The TGI was 20.7 µM with DU-145 prostate; 7.69 µM in the experiment on RXF 393 renal; 18.7 µM with HL-60(TB) leukemia; 15.5 µM in the experiment with 786-0 renal; 62 µM with HOP-18 NSCLC.

For the compound `CN(C)[C@@H]1C(=O)C(C(=O)NCNc2nc3n[nH]nc3c(=O)[nH]2)=C(O)[C@@]2(O)C(=O)C3=C(O)c4c(O)cccc4[C@@](C)(O)[C@H]3C[C@@H]12`, the TGI was 27.2 µM in the experiment with HOP-62 NSCLC; 10.9 µM in the experiment on SK-MEL-5 melanoma; more than 97.1 µM with NCI-H460 lung; more than 56.2 µM in the experiment with SW-620 colon; more than 74.2 µM in the experiment with OVCAR-3 ovarian; more than 69.5 µM in the experiment with EKVX NSCLC. Further, the TGI is 14.5 µM in the experiment on MDA-N; more than 19.5 µM with SR leukemia; 8.25 µM with SK-OV-3 ovarian; 8.88 µM with SF-539 CNS; more than 100 µM with A498 renal; more than 100 µM with BT-549 breast. The TGI was 22.5 µM in the experiment with DU-145 prostate; 5.37 µM in the experiment on RXF 393 renal; 11.6 µM in the experiment with HL-60(TB) leukemia; more than 100 µM in the experiment with 786-0 renal; more than 100 µM with HOP-18 NSCLC.

Take `O=C(NN1C(=O)CS(=O)(=O)C1c1ccc(Cl)c(Cl)c1)c1ccncc1` (configuration not stated): the TGI in the experiment with HOP-62 NSCLC, in the experiment on SK-MEL-5 melanoma, in the experiment on NCI-H460 lung, in the experiment on SW-620 colon, in the experiment with OVCAR-3 ovarian and with EKVX NSCLC was more than 100 µM in each case. Moreover, the TGI is more than 100 µM in the experiment on SK-OV-3 ovarian; more than 100 µM with SF-539 CNS; more than 100 µM in the experiment with A498 renal; more than 100 µM in the experiment on RXF 393 renal; more than 90.4 µM in the experiment with HL-60(TB) leukemia; more than 100 µM in the experiment on HOP-18 NSCLC.

With `ICC1CCCO1` (configuration not stated), the TGI with SK-MEL-5 melanoma, in the experiment with NCI-H460 lung, in the experiment on SW-620 colon, with EKVX NSCLC, with SR leukemia and in the experiment on SF-539 CNS was more than 100 µM each time. Further, the TGI in the experiment on A498 renal, in the experiment with RXF 393 renal, with HL-60(TB) leukemia and in the experiment on HOP-18 NSCLC was more than 100 µM throughout.

Turning to `Nc1nc(SCC(=O)c2ccccc2)c2[nH]cnc2n1`, the TGI in the experiment with HOP-62 NSCLC, in the experiment on SK-MEL-5 melanoma, in the experiment with NCI-H460 lung, in the experiment with SW-620 colon, in the experiment with OVCAR-3 ovarian and with SR leukemia was more than 100 µM throughout. Also, the TGI with SK-OV-3 ovarian, with SF-539 CNS, with A498 renal, in the experiment on HL-60(TB) leukemia, with 786-0 renal and in the experiment with HOP-18 NSCLC was more than 100 µM throughout.

`Cc1cc(O)c2c(c1)C(=O)c1c(c(O)cc(O)c1-c1c(O)cc(O)c3c1C(=O)c1cc(C)cc(O)c1C3=O)C2=O`: the TGI in the experiment with HOP-62 NSCLC was 32.3 µM; with SK-MEL-5 melanoma it was 30.6 µM; with NCI-H460 lung, 55.3 µM; in the experiment with SW-620 colon, 124 µM; in the experiment with OVCAR-3 ovarian, 21.6 µM; in the experiment on EKVX NSCLC it was 34.9 µM. In addition, the TGI was found to be 62.6 µM in the experiment with SK-OV-3 ovarian; 36.6 µM with SF-539 CNS; 40.4 µM in the experiment on A498 renal; 76.5 µM in the experiment on RXF 393 renal; 18.6 µM in the experiment with HL-60(TB) leukemia; 39.9 µM in the experiment on HOP-18 NSCLC.

Regarding `CC(C)[C@@H](C(=O)N(C)[C@H](C(=O)N1CCC[C@H]1C(=O)OCc1ccccc1)C(C)C)N(C)C(=O)C(Cc1ccccc1)N(C)C(=O)[C@H](NC(=O)OC(C)(C)C)C(C)C` (some centres not stated) (Boc-[dV][ξNMeF][NMeV][NMeV]P-OBn), the TGI with HOP-62 NSCLC was more than 31.6 µM; in the experiment with SK-MEL-5 melanoma, 23 µM; in the experiment on NCI-H460 lung it was more than 31.6 µM; with SW-620 colon, more than 31.6 µM; with OVCAR-3 ovarian, more than 67.2 µM; with EKVX NSCLC it was more than 31.6 µM. In addition, the TGI with SR leukemia, with SK-OV-3 ovarian, in the experiment on SF-539 CNS, in the experiment on A498 renal, with RXF 393 renal and with HL-60(TB) leukemia was more than 31.6 µM in each case. The TGI with 786-0 renal was more than 69.7 µM; in the experiment on HOP-18 NSCLC, more than 100 µM.

As to `Cc1ccc(Nc2cccc3c2C(=O)c2cccc(Nc4ccc(C)cc4S(=O)(=O)O)c2C3=O)c(S(=O)(=O)O)c1`, the TGI in the experiment on HOP-62 NSCLC, in the experiment on SK-MEL-5 melanoma, with NCI-H460 lung, with SW-620 colon, in the experiment with OVCAR-3 ovarian and in the experiment with EKVX NSCLC was more than 100 µM each time. The TGI with SR leukemia, with SK-OV-3 ovarian, with SF-539 CNS, with A498 renal, in the experiment with RXF 393 renal and in the experiment on HL-60(TB) leukemia was more than 100 µM throughout. Moreover, the TGI in the experiment with 786-0 renal and in the experiment on HOP-18 NSCLC was more than 100 µM throughout.

These data come from PubChem BioAssay (NCI).
